Data from ChEMBL document CHEMBL1130157 (J Med Chem, 1997).
pEC50, pIC50: −log10 of the molar value.

Key:
Translocator protein = Translocator protein (Rattus norvegicus, UniProt P16257); assay: Displacement of Ro 5-4864 from peripheral (renal cell) Benzodiazepine receptor
[1] = target: GABA-A receptor; anion channel; assay: Displacement of [3H]flunitrazepam from rat brain GABA-A Benzodiazepine receptor
[2] = target: GABA-A receptor; anion channel (Rattus norvegicus) (UniProt O09028+P15431+P18506+P18508+P19969+P20236+P23574+P23576+P28471+P28473+P30191+P62813+P63079+P63138+Q91ZM7+Q9ES14); assay: Percentage inhibition of [3H]flunitrazepam binding to rat brain GABA-A benzodiazepine receptor at 40 uM
[3] = target: GABA A receptor alpha-2/beta-2/gamma-2 (Homo sapiens) (UniProt P47870+P18507+P47869); assay: Maximal potentiation of GABA-evoked Cl- currents in Xenopus oocytes expressing human alpha-2-beta-2-gamma-2 subunits; type: functional, cell-based; settings: Oocyte
[4] = target: T1, GABA A receptor alpha-2/beta-2/gamma-2 (Homo sapiens, UniProt P18507+P47869+P47870); assay: Potentiation of GABA-evoked Cl- currents in Xenopus oocytes expressing human alpha-2-beta-2-gamma-2 subunits; type: functional, cell-based, Oocyte
T1 sequence (P47870 whole entry): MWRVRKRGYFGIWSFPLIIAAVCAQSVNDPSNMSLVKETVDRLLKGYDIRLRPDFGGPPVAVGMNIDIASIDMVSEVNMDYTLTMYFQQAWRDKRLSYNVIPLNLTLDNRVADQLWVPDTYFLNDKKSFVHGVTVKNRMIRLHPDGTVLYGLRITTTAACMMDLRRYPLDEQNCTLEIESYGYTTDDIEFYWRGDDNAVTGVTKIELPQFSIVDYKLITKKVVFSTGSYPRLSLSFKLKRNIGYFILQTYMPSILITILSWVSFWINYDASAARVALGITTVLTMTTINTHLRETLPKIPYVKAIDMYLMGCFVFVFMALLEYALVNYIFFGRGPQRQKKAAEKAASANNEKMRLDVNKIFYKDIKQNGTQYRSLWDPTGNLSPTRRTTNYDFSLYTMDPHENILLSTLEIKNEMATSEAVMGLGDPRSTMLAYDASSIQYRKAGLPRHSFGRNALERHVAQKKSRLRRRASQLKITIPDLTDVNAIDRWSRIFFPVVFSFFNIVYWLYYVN
T1 sequence (P18507 whole entry): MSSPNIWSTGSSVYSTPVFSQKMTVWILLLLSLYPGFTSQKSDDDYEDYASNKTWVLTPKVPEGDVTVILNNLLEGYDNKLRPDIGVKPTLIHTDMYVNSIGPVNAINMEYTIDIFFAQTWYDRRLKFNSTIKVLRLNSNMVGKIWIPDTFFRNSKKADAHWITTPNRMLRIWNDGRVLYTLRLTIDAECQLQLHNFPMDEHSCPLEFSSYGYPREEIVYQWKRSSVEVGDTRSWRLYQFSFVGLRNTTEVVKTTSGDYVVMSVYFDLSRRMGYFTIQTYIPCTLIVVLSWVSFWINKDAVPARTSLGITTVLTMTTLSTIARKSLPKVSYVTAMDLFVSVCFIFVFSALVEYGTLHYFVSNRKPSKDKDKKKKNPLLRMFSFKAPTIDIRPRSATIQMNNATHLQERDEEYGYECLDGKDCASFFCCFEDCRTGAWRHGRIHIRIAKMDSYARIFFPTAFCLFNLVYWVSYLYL
T1 sequence (P47869 whole entry): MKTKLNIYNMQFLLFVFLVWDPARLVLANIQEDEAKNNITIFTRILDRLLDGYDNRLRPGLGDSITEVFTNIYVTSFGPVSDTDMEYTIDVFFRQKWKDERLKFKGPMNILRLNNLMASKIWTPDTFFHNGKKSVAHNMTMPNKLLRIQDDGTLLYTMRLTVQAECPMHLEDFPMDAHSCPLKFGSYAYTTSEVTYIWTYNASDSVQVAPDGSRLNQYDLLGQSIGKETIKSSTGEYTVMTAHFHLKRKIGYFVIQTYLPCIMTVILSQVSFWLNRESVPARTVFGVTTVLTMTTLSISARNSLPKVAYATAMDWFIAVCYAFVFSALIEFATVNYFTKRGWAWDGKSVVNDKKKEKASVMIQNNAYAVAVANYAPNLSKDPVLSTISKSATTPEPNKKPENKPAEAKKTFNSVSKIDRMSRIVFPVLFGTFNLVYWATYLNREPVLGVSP

Chain of Translocator protein (P16257 whole entry, looked up): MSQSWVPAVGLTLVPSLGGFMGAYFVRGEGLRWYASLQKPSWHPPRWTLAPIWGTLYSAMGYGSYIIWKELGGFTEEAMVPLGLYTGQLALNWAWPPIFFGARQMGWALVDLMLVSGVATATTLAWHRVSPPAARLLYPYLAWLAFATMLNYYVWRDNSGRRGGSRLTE

Row | Structure (SMILES) | pIC50 (Translocator protein) | pIC50 [1] | inhibition [2] | Efficacy [3] | pEC50 [4]
1 | CCN(CC)C(=O)c1c(-c2ccc(Cl)cc2)nc2ccc(Cl)cn12 | 5.69 | 5.08 | – | – | –
2 | CCCN(CCC)C(=O)Cc1c(-c2ccc(Cl)cc2)nc2ccc(Br)cn12 | 7.92 | 7.24 | – | – | –
3 | CCCN(CCC)C(=O)Cc1c(-c2ccccc2)nc2ccc(I)cn12 | 7.64 | 6.54 | – | – | –
4 | CCCCOC(=O)Cc1c(-c2ccccc2)nc2ccc(Cl)cn12 | < 4.00 | 5.60 | – | – | –
5 | CCCN(CCC)C(=O)Cc1c(-c2ccc(Cl)cc2)nc2c(Cl)cc(Cl)cn12 [ALPDEM] | 7.70 | – | 0% | – | –
6 | CCOC(=O)Cc1c(-c2ccccc2)nc2ccc(C)cn12 | < 4.00 | 5.86 | – | – | –
7 | CCOC(=O)Cc1c(-c2ccc(Cl)cc2)nc2ccc(Cl)cn12 | < 4.00 | 6.16 | – | – | –
8 | CCCN(CCC)C(=O)Cc1c(-c2ccccc2)nc2ccc([N+](=O)[O-])cn12 | 7.93 | 5.56 | – | – | –
9 | CCCN(CCC)C(=O)Cc1c(-c2ccc(Cl)cc2)nc2ccc(Cl)cn12 [ALPIDEM] | 8.10 | 7.59 | – | – | –
10 | CCCCOC(=O)CCc1c(-c2ccccc2)nc2ccc(Cl)cn12 | < 4.00 | 5.93 | – | – | –
11 | CCCN(CCC)C(=O)Cc1c(-c2ccccc2)nc2ccc(Cl)cn12 | 8.40 | 7.07 | – | 139% | 6.89
12 | CCCN(CCC)C(=O)Cc1c(-c2ccccc2)nc2c(C)cc(Br)cn12 | 7.87 | – | 68% | – | –
13 | CCCN(CCC)C(=O)Cc1c(-c2ccccc2)nc2ccc(Br)cn12 | 7.84 | 6.94 | – | – | –
14 | CCCN(CCC)C(=O)Cc1c(-c2ccccc2)nc2ccc(OC)cn12 | 7.47 | 5.55 | – | – | –
15 | CCCN(CCC)C(=O)Cc1c(-c2ccccc2)nc2c(Br)cc(C)cn12 | 7.72 | – | 78% | – | –
16 | CCCN(CCC)C(=O)c1c(-c2ccc(Cl)cc2)nc2ccc(Cl)cn12 | 6.37 | – | – | – | –

Row | Structure (SMILES) | pIC50 (Translocator protein) | pIC50 [1] | inhibition [2] | Efficacy [3] | pEC50 [4]
17 | CCCCOC(=O)Cc1c(-c2ccc(Cl)cc2)nc2ccc(Cl)cn12 | < 4.00 | 5.56 | – | – | –
18 | CCCN(CCC)C(=O)Cc1c(-c2ccc(Cl)cc2)nc2c(Br)cc(Br)cn12 | 7.26 | – | 17% | – | –
19 | O=C(Cc1c(-c2ccc(Cl)cc2)nc2ccc(Cl)cn12)N1CCCCC1 | 7.73 | 6.62 | – | – | –
20 | CCOC(=O)c1c(-c2ccccc2)nc2ccc(Cl)cn12 | < 4.00 | 5.67 | – | – | –
21 | CCOC(=O)c1c(-c2ccc(C)cc2)nc2ccc(C)cn12 | < 4.00 | 5.94 | – | – | –
22 | CCCN(CCC)C(=O)Cc1c(-c2ccccc2)nc2ccccn12 | 7.10 | 6.33 | – | – | –
23 | CCCN(CCC)C(=O)Cc1c(-c2ccc(Cl)cc2)nc2c(Cl)cc(C(F)(F)F)cn12 | 7.43 | – | 0% | – | –
24 | CCOC(=O)Cc1c(-c2ccccc2)nc2ccc(Cl)cn12 | < 4.00 | 5.93 | – | – | –
25 | CCCN(CCC)C(=O)Cc1c(-c2ccccc2)nc2ccc(C)cn12 | 7.46 | 6.90 | – | – | –
26 | CCOC(=O)CCc1c(-c2ccccc2)nc2ccc(Cl)cn12 | < 4.00 | 5.95 | – | – | –
27 | O=C(c1c(-c2ccc(Cl)cc2)nc2ccc(Cl)cn12)N1CCCC1 | < 4.00 | 5.53 | – | – | –
28 | CCCN(CCC)C(=O)Cc1c(-c2ccccc2)nc2c(Cl)cc(Cl)cn12 | 7.92 | – | 46% | – | –
29 | Cc1ccc(-c2nc3ccc(C)cn3c2CC(=O)N(C)C)cc1 [ZOLPIDEM] | 5.33 | – | – | 150% | –
30 | CCCCOC(=O)Cc1c(-c2ccccc2)nc2ccc(C)cn12 | < 4.00 | 5.50 | – | – | –
31 | CCCN(CCC)C(=O)CCc1c(-c2ccccc2)nc2ccc(Cl)cn12 | 5.49 | 6.51 | – | – | –
32 | O=C(Cc1c(-c2ccc(Cl)cc2)nc2ccc(Cl)cn12)N1CCCC1 | 6.54 | 7.04 | – | 71% | 5.18
